How the values were obtained:
Assay in all cases: KINOMEscan kinase binding assay (Eurofins/DiscoveRx), % Ctrl
[1] = molecular target: T1, kinases (Homo sapiens, UniProt P00519, T315I); conditions: 1 μM
T1 construct: purchased Eurofins/DiscoveRx; host or cells: E. coli BL21-derived host (T7 phage display) for most kinases; HEK-293 for the rest
Procedure, shortened: (§1)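 Competition binding: DNA- or phage-tagged kinases (T7 phage in E. coli BL21, or HEK-293-expressed) with immobilized biotinylated ligand beads and test compound, 1 h at room temperature. Bead-bound kinase eluted and quantified by qPCR; % Ctrl = (compound − positive control)/(negative control − positive control) ×100 at a single compound concentration.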

[2] = molecular target: T2, kinases (Homo sapiens, UniProt P16234); conditions: 1 μM; PDGFRA
T2 construct: purchased Eurofins/DiscoveRx; host or cells: E. coli BL21-derived host (T7 phage display) for most kinases; HEK-293 for the rest
T2 sequence (P16234 24-1089): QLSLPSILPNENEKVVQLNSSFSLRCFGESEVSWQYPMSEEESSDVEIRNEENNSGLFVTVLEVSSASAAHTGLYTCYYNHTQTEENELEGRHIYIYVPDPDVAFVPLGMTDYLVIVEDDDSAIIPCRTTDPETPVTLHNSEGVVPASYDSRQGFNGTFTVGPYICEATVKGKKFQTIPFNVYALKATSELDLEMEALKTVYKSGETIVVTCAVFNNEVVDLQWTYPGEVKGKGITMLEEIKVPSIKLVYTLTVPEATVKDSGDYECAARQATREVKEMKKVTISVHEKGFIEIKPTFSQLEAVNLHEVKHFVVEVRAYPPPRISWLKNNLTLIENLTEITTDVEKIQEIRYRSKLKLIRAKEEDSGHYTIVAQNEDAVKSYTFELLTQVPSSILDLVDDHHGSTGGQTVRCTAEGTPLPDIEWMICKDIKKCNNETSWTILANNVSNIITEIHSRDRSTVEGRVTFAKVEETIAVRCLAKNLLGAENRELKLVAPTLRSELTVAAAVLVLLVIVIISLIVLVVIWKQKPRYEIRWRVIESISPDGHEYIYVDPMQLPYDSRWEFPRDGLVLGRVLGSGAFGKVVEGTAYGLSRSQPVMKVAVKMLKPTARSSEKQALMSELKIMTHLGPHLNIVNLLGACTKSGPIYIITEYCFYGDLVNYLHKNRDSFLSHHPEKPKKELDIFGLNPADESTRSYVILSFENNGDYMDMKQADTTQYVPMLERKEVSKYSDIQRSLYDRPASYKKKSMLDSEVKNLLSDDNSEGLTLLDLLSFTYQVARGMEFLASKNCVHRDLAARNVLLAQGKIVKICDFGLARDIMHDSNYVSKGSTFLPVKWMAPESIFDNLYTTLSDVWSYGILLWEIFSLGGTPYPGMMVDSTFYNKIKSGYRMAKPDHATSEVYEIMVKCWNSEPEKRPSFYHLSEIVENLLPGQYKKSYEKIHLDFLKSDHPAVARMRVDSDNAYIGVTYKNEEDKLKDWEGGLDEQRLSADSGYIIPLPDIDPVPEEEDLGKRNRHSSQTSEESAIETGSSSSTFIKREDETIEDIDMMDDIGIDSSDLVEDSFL
Procedure, shortened: as §1

[3] = molecular target: T3, kinases (Homo sapiens, UniProt P42684); conditions: 1 μM; ABL2
T3 construct: purchased Eurofins/DiscoveRx; host or cells: E. coli BL21-derived host (T7 phage display) for most kinases; HEK-293 for the rest
T3 sequence (P42684 whole entry): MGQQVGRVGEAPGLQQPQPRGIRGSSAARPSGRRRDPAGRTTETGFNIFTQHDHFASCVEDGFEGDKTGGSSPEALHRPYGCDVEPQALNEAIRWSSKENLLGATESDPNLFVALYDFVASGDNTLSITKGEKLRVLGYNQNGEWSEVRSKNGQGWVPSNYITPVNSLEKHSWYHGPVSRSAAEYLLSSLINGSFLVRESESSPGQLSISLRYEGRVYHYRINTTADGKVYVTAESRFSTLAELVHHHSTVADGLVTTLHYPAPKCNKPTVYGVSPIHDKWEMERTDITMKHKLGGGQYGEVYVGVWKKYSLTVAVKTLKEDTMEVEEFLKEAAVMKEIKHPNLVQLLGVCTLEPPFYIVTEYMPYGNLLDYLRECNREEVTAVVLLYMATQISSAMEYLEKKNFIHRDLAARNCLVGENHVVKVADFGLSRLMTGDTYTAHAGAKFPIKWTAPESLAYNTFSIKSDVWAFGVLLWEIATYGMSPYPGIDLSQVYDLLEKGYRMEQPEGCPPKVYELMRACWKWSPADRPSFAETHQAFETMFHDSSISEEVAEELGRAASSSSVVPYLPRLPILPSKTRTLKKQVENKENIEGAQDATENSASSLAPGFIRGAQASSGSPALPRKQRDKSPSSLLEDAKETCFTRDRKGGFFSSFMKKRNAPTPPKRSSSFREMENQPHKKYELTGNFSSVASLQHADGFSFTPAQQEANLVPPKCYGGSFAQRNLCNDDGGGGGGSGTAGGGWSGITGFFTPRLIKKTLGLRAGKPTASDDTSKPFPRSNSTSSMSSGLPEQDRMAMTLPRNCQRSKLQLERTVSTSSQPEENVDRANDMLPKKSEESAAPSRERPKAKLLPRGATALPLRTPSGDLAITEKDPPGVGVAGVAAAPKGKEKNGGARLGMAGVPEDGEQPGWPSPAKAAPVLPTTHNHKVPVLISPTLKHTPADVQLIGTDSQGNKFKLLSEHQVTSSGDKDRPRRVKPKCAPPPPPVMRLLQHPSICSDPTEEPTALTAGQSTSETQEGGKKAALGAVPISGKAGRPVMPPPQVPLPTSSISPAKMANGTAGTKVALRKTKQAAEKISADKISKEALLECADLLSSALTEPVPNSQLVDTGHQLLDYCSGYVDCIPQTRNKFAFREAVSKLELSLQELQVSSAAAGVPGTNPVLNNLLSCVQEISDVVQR
Procedure, shortened: as §1

[4] = molecular target: T4, kinases (Homo sapiens, UniProt P07949, M918T); conditions: 1 μM; RET(M918T)
T4 construct: purchased Eurofins/DiscoveRx; host or cells: E. coli BL21-derived host (T7 phage display) for most kinases; HEK-293 for the rest
T4 sequence (P07949 29-1114 M918T): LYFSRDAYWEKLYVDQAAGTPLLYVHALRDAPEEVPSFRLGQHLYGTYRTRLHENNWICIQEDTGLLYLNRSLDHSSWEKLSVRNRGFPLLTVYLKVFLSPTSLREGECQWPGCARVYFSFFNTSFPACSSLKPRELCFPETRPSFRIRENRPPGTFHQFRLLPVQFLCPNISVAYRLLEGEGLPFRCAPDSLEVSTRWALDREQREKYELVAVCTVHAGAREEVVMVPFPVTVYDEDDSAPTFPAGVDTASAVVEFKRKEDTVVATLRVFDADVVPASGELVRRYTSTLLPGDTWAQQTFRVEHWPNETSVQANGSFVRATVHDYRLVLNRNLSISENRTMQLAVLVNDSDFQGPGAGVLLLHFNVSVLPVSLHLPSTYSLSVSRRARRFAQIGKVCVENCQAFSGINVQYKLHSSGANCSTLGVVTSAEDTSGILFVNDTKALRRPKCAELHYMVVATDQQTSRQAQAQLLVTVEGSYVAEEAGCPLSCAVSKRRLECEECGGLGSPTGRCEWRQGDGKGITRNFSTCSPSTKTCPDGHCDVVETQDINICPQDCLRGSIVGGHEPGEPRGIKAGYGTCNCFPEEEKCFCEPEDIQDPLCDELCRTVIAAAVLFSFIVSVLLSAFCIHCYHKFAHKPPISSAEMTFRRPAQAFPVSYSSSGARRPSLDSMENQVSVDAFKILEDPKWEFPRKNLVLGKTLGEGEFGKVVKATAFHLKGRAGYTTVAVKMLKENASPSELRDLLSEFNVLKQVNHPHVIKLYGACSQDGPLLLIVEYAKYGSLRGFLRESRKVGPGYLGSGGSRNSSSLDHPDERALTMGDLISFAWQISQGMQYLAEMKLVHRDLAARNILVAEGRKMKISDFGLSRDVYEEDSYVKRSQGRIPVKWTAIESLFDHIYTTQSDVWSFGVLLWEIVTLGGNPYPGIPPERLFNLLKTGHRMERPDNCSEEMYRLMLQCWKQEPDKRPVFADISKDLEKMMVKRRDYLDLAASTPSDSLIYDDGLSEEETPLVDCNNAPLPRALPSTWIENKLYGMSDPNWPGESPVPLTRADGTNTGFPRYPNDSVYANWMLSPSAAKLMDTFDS
Procedure, shortened: as §1

[5] = molecular target: T5, kinases (Homo sapiens, UniProt P00533, DEL752-759); conditions: 1 μM; EGFR(S752-I759del)
T5 construct: purchased Eurofins/DiscoveRx; host or cells: E. coli BL21-derived host (T7 phage display) for most kinases; HEK-293 for the rest
Procedure, shortened: as §1

[6] = molecular target: T6, kinases (Homo sapiens, UniProt P10721, V559D); conditions: 1 μM; KIT(V559D)
T6 construct: purchased Eurofins/DiscoveRx; host or cells: E. coli BL21-derived host (T7 phage display) for most kinases; HEK-293 for the rest
T6 sequence (P10721 26-976 V559D): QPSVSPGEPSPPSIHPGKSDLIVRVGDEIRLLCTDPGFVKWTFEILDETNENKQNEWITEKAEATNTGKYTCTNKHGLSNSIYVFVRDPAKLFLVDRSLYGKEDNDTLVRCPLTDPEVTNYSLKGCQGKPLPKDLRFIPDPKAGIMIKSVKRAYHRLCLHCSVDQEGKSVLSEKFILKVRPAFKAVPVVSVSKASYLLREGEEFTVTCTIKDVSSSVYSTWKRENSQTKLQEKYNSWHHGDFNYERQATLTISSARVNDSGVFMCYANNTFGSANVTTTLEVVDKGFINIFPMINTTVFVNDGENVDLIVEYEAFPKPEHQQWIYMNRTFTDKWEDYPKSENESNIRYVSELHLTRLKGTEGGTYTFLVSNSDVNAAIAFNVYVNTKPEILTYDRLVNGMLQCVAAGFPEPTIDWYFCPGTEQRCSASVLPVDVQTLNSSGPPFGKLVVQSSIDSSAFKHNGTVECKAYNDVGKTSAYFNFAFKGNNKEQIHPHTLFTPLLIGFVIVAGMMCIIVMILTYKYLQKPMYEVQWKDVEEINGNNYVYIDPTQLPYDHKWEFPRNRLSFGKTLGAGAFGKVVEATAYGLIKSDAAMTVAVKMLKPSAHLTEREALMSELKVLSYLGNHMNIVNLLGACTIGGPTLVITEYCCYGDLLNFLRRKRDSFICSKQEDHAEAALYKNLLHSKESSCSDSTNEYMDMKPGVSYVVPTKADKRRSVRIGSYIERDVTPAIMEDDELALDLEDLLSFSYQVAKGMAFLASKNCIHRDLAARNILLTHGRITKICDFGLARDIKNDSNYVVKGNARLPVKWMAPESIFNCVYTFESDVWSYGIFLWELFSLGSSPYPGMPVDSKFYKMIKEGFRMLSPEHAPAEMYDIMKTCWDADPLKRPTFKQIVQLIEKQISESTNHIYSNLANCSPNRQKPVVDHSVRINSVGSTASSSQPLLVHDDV
Procedure, shortened: as §1

[7] = molecular target: T7, kinases (Homo sapiens, UniProt P10721, D816H); conditions: 1 μM; KIT(D816H)
T7 construct: purchased Eurofins/DiscoveRx; host or cells: E. coli BL21-derived host (T7 phage display) for most kinases; HEK-293 for the rest
T7 sequence (P10721 26-976 D816H): as the sequence (P10721 26-976 V559D) above, with D534V, D791H counted along it
Procedure, shortened: as §1

[8] = molecular target: T8, kinases (Homo sapiens, UniProt P36888); conditions: 1 μM
T8 construct: purchased Eurofins/DiscoveRx; host or cells: E. coli BL21-derived host (T7 phage display) for most kinases; HEK-293 for the rest
T8 sequence (P36888 27-993): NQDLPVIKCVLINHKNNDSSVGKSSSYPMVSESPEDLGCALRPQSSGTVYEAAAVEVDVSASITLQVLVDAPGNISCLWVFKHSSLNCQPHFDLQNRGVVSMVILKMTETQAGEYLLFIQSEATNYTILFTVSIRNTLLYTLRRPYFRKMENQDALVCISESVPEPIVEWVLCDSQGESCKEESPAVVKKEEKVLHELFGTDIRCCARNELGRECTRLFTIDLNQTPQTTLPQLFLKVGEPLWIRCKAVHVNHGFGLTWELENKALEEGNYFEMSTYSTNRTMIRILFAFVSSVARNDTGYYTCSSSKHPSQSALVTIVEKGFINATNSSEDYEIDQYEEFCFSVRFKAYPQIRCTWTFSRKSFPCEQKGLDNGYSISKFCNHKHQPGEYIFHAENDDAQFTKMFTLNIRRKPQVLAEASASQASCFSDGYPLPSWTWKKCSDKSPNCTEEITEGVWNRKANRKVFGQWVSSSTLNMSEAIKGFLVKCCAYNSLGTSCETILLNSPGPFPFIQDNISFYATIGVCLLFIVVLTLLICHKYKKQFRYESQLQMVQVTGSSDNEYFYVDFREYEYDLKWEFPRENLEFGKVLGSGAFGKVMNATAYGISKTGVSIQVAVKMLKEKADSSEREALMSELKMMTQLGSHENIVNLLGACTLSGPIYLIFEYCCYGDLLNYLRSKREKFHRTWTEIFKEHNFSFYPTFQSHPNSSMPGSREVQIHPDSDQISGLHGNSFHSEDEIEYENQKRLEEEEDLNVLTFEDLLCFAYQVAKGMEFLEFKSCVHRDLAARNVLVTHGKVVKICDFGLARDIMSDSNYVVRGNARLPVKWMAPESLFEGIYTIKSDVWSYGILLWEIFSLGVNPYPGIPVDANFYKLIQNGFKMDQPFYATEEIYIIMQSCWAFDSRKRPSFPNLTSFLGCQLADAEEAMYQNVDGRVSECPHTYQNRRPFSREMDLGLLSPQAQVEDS
Procedure, shortened: as §1

[9] = molecular target: T9, kinases (Homo sapiens, UniProt P00519, E255K); conditions: 1 μM; ABL1(E255K)-phosphorylated
T9 construct: purchased Eurofins/DiscoveRx; host or cells: E. coli BL21-derived host (T7 phage display) for most kinases; HEK-293 for the rest
Procedure, shortened: as §1

[10] = molecular target: T10, kinases (Homo sapiens, UniProt P00519); conditions: 1 μM
T10 construct: purchased Eurofins/DiscoveRx; host or cells: E. coli BL21-derived host (T7 phage display) for most kinases; HEK-293 for the rest
Procedure, shortened: as §1

[11] = molecular target: T11, kinases (Homo sapiens, UniProt P07949); conditions: 1 μM; RET
T11 construct: purchased Eurofins/DiscoveRx; host or cells: E. coli BL21-derived host (T7 phage display) for most kinases; HEK-293 for the rest
T11 sequence (P07949 29-1114): as the sequence (P07949 29-1114 M918T) above, with T890M counted along it
Procedure, shortened: as §1

[12] = molecular target: T12, kinases (Homo sapiens, UniProt P00533, L861Q); conditions: 1 μM; EGFR(L861Q)
T12 construct: purchased Eurofins/DiscoveRx; host or cells: E. coli BL21-derived host (T7 phage display) for most kinases; HEK-293 for the rest
Procedure, shortened: as §1

[13] = molecular target: T13, kinases (Homo sapiens, UniProt P00519, Q252H); conditions: 1 μM
T13 construct: purchased Eurofins/DiscoveRx; host or cells: E. coli BL21-derived host (T7 phage display) for most kinases; HEK-293 for the rest
Procedure, shortened: as §1

SMILES | % Ctrl, ABL1(T315I)-nonphosphorylated [1] [% Ctrl] | % Ctrl, ABL1(T315I)-phosphorylated [1] [% Ctrl] | % Ctrl, PDGFRA [2] [% Ctrl] | % Ctrl, ABL2 [3] [% Ctrl] | % Ctrl, RET(M918T) [4] [% Ctrl] | % Ctrl, EGFR(S752-I759del) [5] [% Ctrl] | % Ctrl, KIT(V559D) [6] [% Ctrl] | % Ctrl, KIT(D816H) [7] [% Ctrl] | % Ctrl, FLT3 [8] [% Ctrl] | % Ctrl, FLT3-autoinhibited [8] [% Ctrl] | % Ctrl, ABL1(E255K)-phosphorylated [9] [% Ctrl] | % Ctrl, ABL1-nonphosphorylated [10] [% Ctrl] | % Ctrl, ABL1-phosphorylated [10] [% Ctrl] | % Ctrl, RET [11] [% Ctrl] | % Ctrl, EGFR(L861Q) [12] [% Ctrl] | % Ctrl, ABL1(Q252H)-nonphosphorylated [13] [% Ctrl] | % Ctrl, ABL1(Q252H)-phosphorylated [13] [% Ctrl]
Cc1cc2c([nH]1)/C=C1\C(=O)Nc3ccc(cc31)-c1ccnn1CCOCCNC2=O [Ex.39, [19a(20)Z]-2-methyl-6,7,9,10-tetrahydro-1H-15,17-(ethanediylidene)pyrazolo[1,5-d]dipyrrolo[3,4-h:2′,3′-k][1,4,14]oxadiazacyclohexadecine-4,19(5H,18H)-dione] | 95 | 26 | 89 | 89 | 97 | 80 | 99 | 83 | 100 | 85 | 72 | 73 | 78 | 85 | 68 | 84 | 93
Cc1cc2c([nH]1)/C=C1\C(=O)Nc3ccc(cc31)OCCOCCN(C)C2=O [Ex.91, [16a(17)Z]-2,5-dimethyl-6,7,9,10-tetrahydro-1H-12,14-(ethanediylidene)dipyrrolo[3,2-i:3′,4′-l][1,4,7]dioxazacyclopentadecine-4,16(5H,15H)-dione] | 4.5 | 5.8 | 52 | 32 | 7 | 63 | 62 | 41 | 11 | 38 | 14 | 0.75 | 15 | 4.3 | 66 | 2.8 | 11
Cc1cc2c([nH]1)/C=C1\C(=O)Nc3ccc(cc31)CN(C)C(=O)COCCNC2=O [Ex.111, [17a(18)Z]-2,11-dimethyl-6,7,11,12-tetrahydro-1H-13,15-(ethanediylidene)dipyrrolo[3,2-f:3′,4′-i][1,4,14]oxadiazacyclohexadecine-4,10,17(5H,9H,16H)-trione] | 90 | 64 | 95 | 100 | 76 | 54 | 97 | 7 | 45 | 95 | 42 | 71 | 59 | 94 | 64 | 75 | 57

Continued, values first:

% Ctrl, ABL1(T315I)-nonphosphorylated [1] [% Ctrl] | % Ctrl, ABL1(T315I)-phosphorylated [1] [% Ctrl] | % Ctrl, PDGFRA [2] [% Ctrl] | % Ctrl, ABL2 [3] [% Ctrl] | % Ctrl, RET(M918T) [4] [% Ctrl] | % Ctrl, EGFR(S752-I759del) [5] [% Ctrl] | % Ctrl, KIT(V559D) [6] [% Ctrl] | % Ctrl, KIT(D816H) [7] [% Ctrl] | % Ctrl, FLT3 [8] [% Ctrl] | % Ctrl, FLT3-autoinhibited [8] [% Ctrl] | % Ctrl, ABL1(E255K)-phosphorylated [9] [% Ctrl] | % Ctrl, ABL1-nonphosphorylated [10] [% Ctrl] | % Ctrl, ABL1-phosphorylated [10] [% Ctrl] | % Ctrl, RET [11] [% Ctrl] | % Ctrl, EGFR(L861Q) [12] [% Ctrl] | % Ctrl, ABL1(Q252H)-nonphosphorylated [13] [% Ctrl] | % Ctrl, ABL1(Q252H)-phosphorylated [13] [% Ctrl] | SMILES
97 | 100 | 100 | 95 | 92 | 72 | 96 | 100 | 81 | 100 | 67 | 71 | 69 | 81 | 87 | 87 | 74 | Cc1cc2c([nH]1)/C=C1\C(=O)Nc3ccc(nc31)-c1ccccc1OCCCNC2=O [Ex.22, [3a(4)Z]-6-methyl-9,10,11,12-tetrahydro-1,18-(ethanediylidene)dipyrrolo[3,2-g:3′,4′-j][1,5,12]benzoxadiazacyclopentadecine-3,8(2H,5H)-dione]
100 | 100 | 100 | 100 | 91 | 74 | 100 | 100 | 93 | 100 | 85 | 90 | 93 | 96 | 80 | 97 | 100 | Cc1cc2c([nH]1)/C=C1\C(=O)Nc3cnc(nc31)N(C)CCCOCCN(C)C2=O [Ex.71, [17a(18)Z]-2,5,12-trimethyl-6,7,9,10,11,12-hexahydro-1H-13,15-(azenometheno)dipyrrolo[3,2-f:3′,4′-i][1,4,11,13]oxatriazacyclohexadecine-4,17(5H,16H)-dione]
